≈ marks a conversion by molar mass, not a printed value.
conditions: buffer; pH 7.4; 200.0 µM

Row | SMILES | solubility kinetic [µg/mL]
1 | O=C1CSC(c2ccc([N+](=O)[O-])cc2)N1Cc1ccccc1 (stereo not given) | 32.5 (≈ 103 µM)
2 | O=[N+]([O-])c1ccccc1S(=O)(=O)N1CCCC(C(F)(F)F)C1 (stereo not given) | 3.1 (≈ 9.16 µM)
3 | N/C(=N\OC(=O)c1cccs1)c1cccnc1 | 33.1 (≈ 134 µM)
4 | COc1nccc(C(F)(F)F)c1C(=O)Nc1ccc(Cl)cc1 | 1.6 (≈ 4.84 µM)
5 | CCc1ccc(OCC(O)CN2CCCC2)cc1.Cl (stereo not given) | 39.8
6 | O=C(Nc1ccccc1[N+](=O)[O-])C1COc2ccccc2O1 (stereo not given) | 1 (≈ 3.33 µM)
7 | O=C(CNC(=O)COc1ccccc1)NCc1cccnc1 | > 44.9
8 | COc1ccccc1C1CCN(Cc2cccc([N+](=O)[O-])c2)CC1 | 16.4 (≈ 50.2 µM)
9 | COc1ccc(C(=O)Nc2ccc(Cl)c(S(=O)(=O)N3CCOCC3)c2)cc1 | 2.9 (≈ 7.06 µM)
10 | Cc1cc(NS(=O)(=O)c2cccc([N+](=O)[O-])c2)no1 | 32.5 (≈ 115 µM)
11 | CCNc1nc(=S)nc(NCc2ccccc2)[nH]1 | 4.6 (≈ 17.6 µM)
12 | O=S(=O)(NCc1ccco1)c1cnc(Cl)c(Cl)c1 | > 46.1
13 | C/C=C/C(=O)Nc1ccc(N2CCN(c3ccc(C(F)(F)F)cn3)CC2)nc1 | < 0.2
14 | COC(=O)C1(C(=O)O)Cc2cc([N+](=O)[O-])ccc2N2CCCC21 (stereo not given) | 47.9 (≈ 150 µM)
15 | Fc1ccccc1OCCCn1ccnc1 | > 33
16 | COc1ccc(N2CCc3c(C)nc4c(OC)cc(OC)cc4c32)cc1 | > 52.6
17 | O=C(Cc1c(F)cccc1Cl)N(Cc1ccccc1)c1ccccn1 | 37.3 (≈ 105 µM)
18 | COc1ccc(C(=O)C(C)OC(=O)CNC(=O)C2CCCCC2)cc1 (stereo not given) | > 52.1
19 | O=C(OC(C(=O)c1c[nH]c2ccccc12)c1ccccc1)c1cnccn1 (stereo not given) | 47 (≈ 132 µM)
20 | O=S(=O)(c1cnccc1N1CCN(CCO)CC1)N1CCCCC1 | > 53.2
21 | Cc1ccc(C(=O)NC(C)C(c2cccs2)N2CCCC2)s1 (stereo not given) | > 50.2
22 | O=C(NC(=S)N1CCCCC1CO)c1cccs1 (stereo not given) | > 42.7
23 | CCC1CCCCN1C(=O)CSc1nc(C)cc(C)n1 (stereo not given) | > 44
24 | NS(=O)(=O)c1ccc(CCNC(=O)CNC(=O)Cc2ccccc2)cc1 | > 56.3

Row | SMILES | solubility kinetic [µg/mL]
25 | CC(=O)N1CCc2[nH]c3ccc(C)cc3c2C1 | > 34.2
26 | O=C(CSc1ncccn1)N1CCCC1 | > 33.5
27 | COC(=O)c1sc(NC(=O)c2cc(C)on2)nc1C | 35.5 (≈ 126 µM)
28 | COCc1cc(NCc2ccc(Cl)cc2)nc(C)n1 | 34.7 (≈ 125 µM)
29 | COc1cccc(NC(=O)C2(S(=O)(=O)c3ccc(Cl)cc3)CC2)c1 | 33.1 (≈ 90.5 µM)
30 | CC1CN(C(=O)NCc2ccccc2)c2cc(Cl)ccc2O1 (stereo not given) | 6.3 (≈ 19.9 µM)
31 | N=C1C=CC=C2C1=NC1(CCCCC1)N2O | > 32.6
32 | Cc1ccsc1C(=O)N1CCN(c2ncccn2)CC1 | > 43.3
33 | COc1ccc(C(=O)NCC(=O)OCC(=O)NC23CC4CC(CC(C4)C2)C3)cc1 | > 60.1
34 | O=C(NC1(O)C(=O)c2ccccc2C1=O)c1ccc(C(F)(F)F)cc1 | > 52.4
35 | C/C(CC(=O)Nc1cc(C)ccn1)=N\NC(=O)c1ccccc1C | > 48.7
36 | CN1C(=O)N(C)C(=O)C2(Cc3ccccc3N3CCCC32)C1=O (stereo not given) | 46 (≈ 147 µM)
37 | Cn1c(=O)c2c(nc(Oc3ccccc3Cl)n2C)n(C)c1=O | 16 (≈ 49.9 µM)
38 | COc1ccccc1CNC(=O)C(=O)Nc1nccs1 | 6 (≈ 20.6 µM)
39 | NS(=O)(=O)c1cccc(NC(=O)CN2CCCc3ccccc32)c1 | > 51.8
40 | Cn1ccnc1SCC(=O)N1CCc2ccccc21 | 38.9 (≈ 142 µM)
41 | COc1ccccc1NC(=O)NCC1(N(C)C)CCCCC1 | > 45.8
42 | O=C(CN1CCN(c2ccccn2)CC1)Nc1cc(F)ccc1F | > 49.9
43 | C[C@H](NC(=O)c1ccc2c(c1)OCO2)c1nnc2ccccn12 | > 46.5
44 | CCC(C)c1ccccc1NC(=O)CN(CC)CC(=O)Nc1ccc2c(c1)OCCO2 (stereo not given) | 38.3 (≈ 90 µM)
45 | Cn1c(Nc2ccc(Cl)cc2)cc(=O)n(C)c1=O | > 39.9
46 | O=C(Cc1ccc([N+](=O)[O-])cc1)NCC1CCCO1 (stereo not given) | > 39.6
47 | COc1ccc(OCCC(=O)OCC(=O)c2ccc[nH]2)cc1 | > 45.5
48 | CC(C)N1CCN(CCCc2ccccc2)CC1CCO (stereo not given) | > 43.6

Row | SMILES | solubility kinetic [µg/mL]
49 | O=C(CN1c2cccc3cccc(c23)S1(=O)=O)NCCc1ccc(F)cc1 | 1.9 (≈ 4.94 µM)
50 | COc1ccc(NC(=O)/C=N/O)cc1 | > 29.1
51 | O=C(c1cc(Cl)ccc1O)N1CCN(S(=O)(=O)Cc2ccccc2)CC1 | > 59.2
52 | CC1CCCN(c2nc3nonc3nc2Nc2ccccc2F)C1 (stereo not given) | 0.8 (≈ 2.44 µM)
53 | CCS(=O)CC(=O)Nc1c(-c2ccccc2)oc2ccccc2c1=O (stereo not given) | 44.8 (≈ 126 µM)
54 | CC(C(=O)Nc1ccc(F)c(F)c1F)N(C)Cc1cccs1 (stereo not given) | 13.6 (≈ 41.4 µM)
55 | COc1ccc(Cl)cc1C(=O)OCC(=O)c1ccc[nH]1 | 8.4 (≈ 28.6 µM)
56 | O=C(CN1C(=O)NC2(CCCCCC2)C1=O)NCCc1ccccc1 | > 51.5
57 | O=[N+]([O-])c1cccc(CSc2cccc[n+]2[O-])c1 | > 39.3
58 | NC(=O)Nc1ccc(C(=O)OCC(=O)NC2CCCCC2)cc1 | 37.5 (≈ 117 µM)
59 | COC(=O)c1nc(-c2ccccc2)oc1N1CCOCC1 | > 43.2
60 | COC(=O)C1CCN(C(=O)COC(=O)c2cc(S(=O)(=O)N3CCOCC3)ccc2C)CC1 | > 70.3
61 | O=C(NCc1ccccc1)c1cccn(Cc2ccccc2)c1=O | 45.9 (≈ 144 µM)
62 | CCNC(=O)COC(=O)c1[nH]c(C)c(C(=O)OC)c1C | > 42.3
63 | CNC(=O)CCCN1C(=O)c2ccccc2Sc2ncccc21 | > 49.1
64 | CC(C)N1CC(COc2ccc(Br)cc2)OC1=O (stereo not given) | 45.1 (≈ 144 µM)
65 | CCOC(=O)c1cc(-c2csc(-c3ccc(C(C)(C)C)cc3)n2)on1 | 0.4 (≈ 1.12 µM)
66 | Cc1cc(NC(=O)c2ccc(Cl)cc2Cl)n(CCC#N)n1 | > 48.5
67 | CC(C)(C)NCC(O)CON=C1c2ccccc2-c2ccccc21 (stereo not given) | 44.1 (≈ 136 µM)
68 | Cc1ccc(S(=O)(=O)NCC(=O)OCCOc2ccccc2F)cc1 | 21.5 (≈ 58.5 µM)
69 | CC(C)(C)N=Cc1c(O)ccc2oc3c(c12)CCCC3 | 6.5 (≈ 24 µM)
70 | CN(C)c1cc(Nc2cccc(O)c2)c([N+](=O)[O-])c2nonc12 | 0.4 (≈ 1.27 µM)
71 | O=C(Cn1c(=O)oc2ccccc21)N1CCCC1 | > 36.9
72 | CSc1nc(NCCCO)c2c3c(sc2n1)CN(C)CC3 | 41.7 (≈ 129 µM)

Row | SMILES | solubility kinetic [µg/mL]
73 | COc1ncnc2c1oc1nc(C)c3c(c12)CC(C)(C)OC3 | 4.9 (≈ 16.4 µM)
74 | O=C(CSc1nc2ccccc2c(=O)n1-c1ccccc1)N1CCC1 | > 52.7
75 | CC1=C(C(=O)NC(C)c2ccccc2)C2(CCC(C)CC2)OC1=O (stereo not given) | 8.4 (≈ 25.7 µM)
76 | CC(=O)c1ccc(NC(=O)CSc2nccn2C)cc1 | > 43.4
77 | Cc1ccccc1Nc1nc(-c2cccnc2)cs1 | 11.2 (≈ 41.9 µM)
78 | COc1ccc(/C=C(/NC(=O)c2ccccc2)C(=O)N2CCCC2)cc1 | > 52.6
79 | CCOC(=O)c1[nH]c(=O)[nH]c1CNc1ccccc1C#N | > 42.9
80 | CC(OC(=O)C1CC1)C(=O)Nc1ncc(Cl)cc1Cl (stereo not given) | > 45.5
81 | CCOc1cccc(C2CC(=O)Nc3cc(OC)c(OC)cc32)c1 (stereo not given) | 12.5 (≈ 38.2 µM)
82 | O=C(CCN1CCN(c2ccccc2F)CC1)Nc1ccccc1Cl | > 54.3
83 | Cc1nc2ccccc2c2c1CC(C(C)(Cl)Br)O2 (stereo not given) | 26.7 (≈ 81.7 µM)
84 | N#Cc1nc(-c2ccc(F)cc2)oc1N1CCCCC1 | 0.9 (≈ 3.32 µM)
85 | COc1ccc(NC(=O)COC(=O)CN2C(=O)C3CC=CCC3C2=O)c([N+](=O)[O-])c1 (stereo not given) | > 62.6
86 | Nc1cc(N)cc(C(=O)Nc2ccc3c(c2)C(=O)NC3=O)c1 | > 44.4
87 | O=C(c1ccc(Cl)cc1)N1CCc2c([nH]c3ccccc23)C1C(F)(F)F (stereo not given) | 1.4 (≈ 3.7 µM)
88 | COc1ccc(OCC(O)CNC(=O)c2sccc2Cl)cc1 (stereo not given) | 46 (≈ 135 µM)
89 | O=C(Nc1ccccc1)c1ccc(-c2ccc(F)cc2)s1 | < 0.6
90 | Clc1ccc(Cl)c(OCCN2CCCC2)c1 | 25.4 (≈ 97.6 µM)
91 | O=Cc1c(-c2ccc(F)cc2)nc2ccccn12 | 2.5 (≈ 10.4 µM)
92 | Cc1ccsc1/C=N/Nc1ncnc2nc[nH]c12 | > 38.7
93 | CC1CC(C)CN(S(=O)(=O)c2ccc3c(c2)CC(=O)N3)C1 (stereo not given) | 9.4 (≈ 30.5 µM)
94 | c1ccc2[nH]cnc2c1 | > 17.7
95 | O=C1CSC(c2ccccc2O)N1Cc1ccccc1 (stereo not given) | > 42.8
96 | Cc1ccc(NCc2ccc(O)c3ncccc23)cc1C | 3.6 (≈ 12.9 µM)

Row | SMILES | solubility kinetic [µg/mL]
97 | Cn1c(=O)c([N+](=O)[O-])c(NCCCn2ccnc2)c2ccccc21 | > 49.1
98 | N#CCC(=O)Nc1ccc(C(=O)OCC(=O)NC2CCCc3ccccc32)cc1 (stereo not given) | 7.5 (≈ 19.2 µM)
99 | CN(c1ccccc1)S(=O)(=O)c1ccc2ccccc2c1 | 2.4 (≈ 8.07 µM)
100 | O=[N+]([O-])/C=C/c1ccc2c(ccn2Cc2ccccc2)c1 | 0.6 (≈ 2.16 µM)
101 | CC1N=C(c2ccccc2)c2cc(Br)ccc2NC1=O (stereo not given) | > 49.4
102 | CC1C(=O)Nc2ccccc2N1C(=O)c1ccc(F)cc1 (stereo not given) | > 42.6
103 | CCOc1ccc(NC(=O)/C(C=Nc2ccccc2)=C(\C)O)cc1 | 1 (≈ 3.08 µM)
104 | COC(=O)c1ccc(N/C=C/C(=O)c2ccccc2)cc1 | 1.5 (≈ 5.33 µM)
105 | Cn1cc(C(=O)NCCO)c(=O)c2ccccc21 | > 36.9
106 | CCCCCC1=NN2C(=O)CC(=O)N=C2S1 | > 35.9
107 | Cc1cccn2c(=O)c(/C=N/O)c(Nc3ccccc3F)nc12 | 0.2 (≈ 0.64 µM)
108 | COc1ccccc1CC(=O)Nc1cccc(C)n1 | > 38.4
109 | Cc1ccccc1OCC(=O)Nc1ccc2c(c1)n(C)c(=O)n2C | 46.2 (≈ 142 µM)
110 | O=C(NNC(=S)Nc1ccc(F)c(Cl)c1)C1CC1 | > 43.2
111 | CCc1ccc(Oc2ncnc(N)c2[N+](=O)[O-])cc1 | 5 (≈ 19.2 µM)
112 | COc1ccc(NC(=O)CSc2ccccn2)c([N+](=O)[O-])c1 | 7.3 (≈ 22.9 µM)
113 | Cc1nc2ccc(NC(=O)c3cc(Cl)ccn3)cc2s1 | 4.9 (≈ 16.1 µM)
114 | O=Cc1c(C(=O)O)n(Cc2ccccc2Cl)c2ccccc12 | > 47.1
115 | CN(C(=O)COC(=O)c1cccnc1Cl)C1CCCCC1 | > 46.6
116 | N#CC(CCN1CCOCC1)(c1ccccc1)c1ccccc1 | 43.1 (≈ 141 µM)
117 | CCN(CC)CCOCCOc1ccc(Cl)c2ccccc12 | 32.2 (≈ 100 µM)
118 | CC1(C)CC(NC(=O)Nc2ccc([N+](=O)[O-])cc2)CC(C)(C)N1 | > 48.1
119 | COc1ccccc1C(=O)NCCC(=O)NCc1cccs1 | > 47.8
120 | O=C(Nc1ccccc1Cl)c1ccc2ccccc2c1 | < 0.6
